Experiments:
Format in all cases: in vivo
Brachiaria plantaginea = assay: Post-emergence herbicidal action against Brachiaria plantaginea
Description: (§1) The following abbreviations are used in the description and the tables that follow: • g of a.i./ha=grams of active substance (active ingredient) (=100% active compound) per hectare; • The sum total of the effects of the individual applications is reported under E^A; • expected values according to Colby are each reported under E^C.
(§2) The rating period is reported in days after application (DAT).

Eleusine indica = assay: Post-emergence herbicidal action against Eleusine indica; conditions: 21 DAT; 1.7 g a.i./ha
Kochia scoparia = assay: Post-emergence herbicidal action against Kochia scoparia; conditions: 21 DAT
Sorghum halepense = assay: Post-emergence herbicidal action against Sorghum halepense; conditions: 21 DAT; 15 g of a.i./ha
Experimental: (§3) When the observed efficacies exceed the formal sum total of the values of the tests with individual applications, they also exceed the expected value according to Colby, which is calculated using the formula below and is likewise regarded as an indication of synergism (cf. S. R. Colby; in Weeds 15 (1967) p. 20 to 22): E^C=A+B−([…])
(§4) Here: • A=efficacy of the active compound (A) in % at an application rate of a g a.i./ha; • B=efficacy of the active compound (B) in % at an application rate of b g a.i./ha; • E^C=expected value of the effect of the combination (A)+(B) in % at the combined application rate a+b g a.i./ha.
(§5) Seeds or rhizome pieces of mono- and dicotyledonous weeds are placed in sandy loam in pots, covered with soil and grown in a greenhouse under good growth conditions (temperature, air humidity, water supply). Three weeks after sowing, the test plants were treated at the three-leaf stage with the compositions according to the invention. The compositions according to the invention formulated as spray powders or as emulsion concentrates were sprayed onto the green plant parts in various dosages with an application rate of 300 to 800 l/ha of water (equivalent). After the test plants have been left to stand in the greenhouse under optimal growth conditions for about 3 to 4 weeks, the action of the preparations is scored visually in comparison to untreated controls. The compositions according to the invention also have good post-emergence herbicidal activity against a broad spectrum of economically important gramineous and broadleaf weeds.

Abutilon theophrasti = assay: Post-emergence herbicidal action against Abutilon theophrasti; conditions: 21 DAT
Setaria viridis = assay: Post-emergence herbicidal action against Setaria viridis; conditions: 21 DAT
Experimental: as §3, §4, §5

Echinochloa crus-galli = assay: Post-emergence herbicidal action against Echinochloa crus-galli; conditions: 21 DAT
Experimental: as §3, §4, §5

Amaranthus palmeri = assay: Post-emergence herbicidal action against Amaranthus palmeri; conditions: 21 DAT
Experimental: as §3, §4, §5

Bidens pilosa = assay: Post-emergence herbicidal action against Bidens pilosa; conditions: 21 DAT
Experimental: as §3, §4, §5

Pharbitis purpurea = assay: Post-emergence herbicidal action against Pharbitis purpurea; conditions: 21 DAT; 15 g a.i./ha
Experimental: as §3, §4, §5

Digitaria horizontalis = assay: Post-emergence herbicidal action against Digitaria horizontalis; conditions: A3/Asulam, post-emergence, g of a.i./ha by row: 720, 100, 100 + 720
Description: as §1, §2

## COc1c(Cl)ccc(-c2nc(C(=O)O)c(Cl)c(N)c2F)c1F [(B5.23) Florpyrauxifen]
Brachiaria plantaginea; 30 g of a.i./ha
  Herbicidal action 28 DAT [%] against Brachiaria plantaginea: 40%

## CC(C)OC(=O)[C@H]1C[C@@H](NC(=O)C2(C)CC(c3cccc(F)c3)=NO2)CO1 (relative stereo) [Compound A4, isopropyl rel-(2R,4R)-4-[[3-(3-fluorophenyl)-5-methyl-4H-isoxazole-5-carbonyl]amino]tetrahydrofuran-2-carboxylate]
Eleusine indica
  Herbicidal action: 20%
Kochia scoparia; 5 g a.i./ha
  Herbicidal action: 10%
Kochia scoparia; 15 g a.i./ha
  Herbicidal action: 10%
Sorghum halepense
  Herbicidal action against Sorghum halepense: 10%
Abutilon theophrasti; 5 g of a.i./ha
  Herbicidal action against Abutilon theophrasti: 10%
Abutilon theophrasti; 15 g of a.i./ha
  Herbicidal action against Abutilon theophrasti: 10%
Abutilon theophrasti; 45 g of a.i./ha
  Herbicidal action against Abutilon theophrasti: 20%
Setaria viridis; 1.5 g of a.i./ha
  Herbicidal action against Setaria viridis: 10%
Setaria viridis; 5 g a.i./ha
  Herbicidal action: 20%
Setaria viridis; 15 g a.i./ha
  Herbicidal action: 60%
Setaria viridis; 15 g of a.i./ha
  Herbicidal action against Setaria viridis: 60%
Echinochloa crus-galli; 5 g a.i./ha
  Herbicidal action: 10%
Echinochloa crus-galli; 15 g of a.i./ha
  Herbicidal action against Echinochloa crus-galli: 20%
Amaranthus palmeri; 15 g of a.i./ha
  Herbicidal action against Amaranthus palmeri (res.): 10%
Amaranthus palmeri; 45 g of a.i./ha
  Herbicidal action against Amaranthus palmeri (res.): 30%
Amaranthus palmeri; (res.), 5 g a.i./ha
  Herbicidal action: 10%
Bidens pilosa; 5 g a.i./ha
  Herbicidal action: 10%
Bidens pilosa; 5 g of a.i./ha
  Herbicidal action against Bidens pilosa: 10%
Bidens pilosa; 15 g a.i./ha
  Herbicidal action: 10%
Bidens pilosa; 15 g of a.i./ha
  Herbicidal action against Bidens pilosa: 10%
Bidens pilosa; 45 g a.i./ha
  Herbicidal action: 30%
Pharbitis purpurea
  Herbicidal action: 60%

## COC(=O)NS(=O)(=O)c1ccc(N)cc1 [(B2.4) Asulam]
Digitaria horizontalis; first sub-table
  Herbicidal action 28 DAT against Digitaria horizontalis: 0%
Digitaria horizontalis; second sub-table
  Herbicidal action 28 DAT against Digitaria horizontalis: 0%
Brachiaria plantaginea; A3/Asulam, post-emergence, g of a.i./ha by row: 720, 100, 100 + 720
  Herbicidal action 28 DAT against Brachiaria plantaginea: 0%

Reference: patent US12171230B2, “Herbicidal compositions” (Bayer Aktiengesellschaft, priority 2018, dated 2024)
